# Reference: patent US10441669B2, “Multifunctional chelators, complexes, and compositions thereof, and methods of using same” (ILLINOIS INSTITUTE OF TECHNOLOGY, priority 2013, dated 2019)
# What was measured:
# [1] = EDTA challenge of 64Cu-radiolabeled complexes of chelators A-F; format: physicochemical; conditions: EDTA 100-fold molar excess; for Bound complex (%): 64Cu complex, 37° C.; for 64Cu activity dissociated from the complex / transferred to EDTA: 24 h time point
# Protocol: ^64Cu-radiolabeled complexes were further evaluated for complex stability based on EDTA challenge. ^64Cu-radiolabeled complexes were freshly prepared and treated with a solution of EDTA at a 100-fold molar excess, and the resulting solution (pH 5.5) was incubated at 37° C. for 24 h. […] Among the complexes tested, ^64Cu-radiolabeled pentadentate chelator B was least tolerant of EDTA treated, and most of ^64Cu was dissociated from the complex (˜80%) at 24 h time point. ^64Cu-radiolabeled chelator C containing the carbonyl donor group was found dissociated rapidly in the presence of the excess EDTA, and 50% of the activity was transchelated by EDTA at 1 h time point. ^64Cu-radiolabeled chelators D and F with the respective hydroxyl and thiophenyl donor group were slower in dissociation than ^64Cu-radiolabeled chelators B and C and released >45% of ^64Cu at 24 h time point. Dissociation of the activity from the ^64Cu-radiolabeled chelators was also measured using radio-HPLC at 25 h time point (FIG. 5). The peak related to ^64Cu-EDTA (tR=2.5 min) was clearly separated from bound ^64Cu complex of the chelators. ^64Cu-radiolabeled complex of polar chelators E and F have the respective retention time at […] and 6.2 min, while other ^64Cu-radiolabeled complexes have similar retention time (tR=7˜8 min). The ^64Cu-radiolabeled chelators C and D gave a small peak (tR=˜3 min and tR=˜7 min, respectively).
# ^64Cu-radiolabeled complexes were prepared by reaction of each chelator (20 μg) with ^64Cu (60 μCi) in 0.25M NH4OAc buffer (pH 5.5) for 2 h at room temperature. The radiolabeled complexes were prepared as described above and directly used for the experiments. ^64Cu-radiolabeled complex was mixed with EDTA at a 100-fold molar excess. The resulting mixture was incubated for 24 h at 37° C. The stability of ^64Cu-radiolabeled complexes in the solution was evaluated using ITLC (20 mM EDTA in 0.15M NH4OAc). A solution of the radiolabeled complex in serum (3˜20 μL) was withdrawn at the designated time points and evaluated by ITLC as described above. Stability of the complexes was also evaluated at 25 h time point by HPLC (solvent A: 0.1% TFA in H2O, solvent B: 0.1% TFA in CH3CN, 0-100% B/15 min, flow rate: 1 mL/min). ^64Cu-EDTA complex was eluted early (tR=˜2.5 min), while ^64Cu-radiolabeled complexes of chelators A-D, E, and F have the respective retention time (tR=7˜8 min, tR=4.6 min, and tR=6.2 min).
# [2] = Serum stability of 64Cu-radiolabeled complexes of pyridyl chelators; format: in vitro ADME; conditions: 64Cu complex, human serum, 37° C.
# Protocol: In vitro serum stability of the radiolabeled complexes was performed to determine if the chelators radiolabeled with ^64Cu remained stable without loss of the radioactivity in human serum as described above. All ^64Cu-radiolabeled chelators remained intact in human serum for 2 days as evidenced by ITLC and HPLC analysis.
# [3] = EDTA challenge of 177Lu-radiolabeled pyridyl chelators; format: physicochemical; conditions: 37° C.; for stability of 177Lu complex in EDTA solution: EDTA 100-fold molar excess, 24 h; for Bound (%): Lu-177 complex, EDTA solution 100-fold molar excess
# Protocol: (§1) ^64Cu- or ^177Lu-radiolabeled complexes were prepared by reaction of each chelator (20 μg) with ^64Cu or ^177Lu (60 μCi) in 0.25M NH4OAc buffer (pH 5.5) for 2 h at room temperature. The radiolabeled complexes were prepared as described above and directly used for the experiments. The radiolabeled complex was mixed with EDTA at a 100-fold molar excess. The resulting mixture was incubated for 24 h at 37° C. The stability of ^64Cu-radiolabeled complexes in the solution was evaluated using ITLC (20 mM EDTA in 0.15M NH40OAc).
# [4] = In vitro serum stability of 177Lu-radiolabeled bimodal chelator complexes; format: in vitro ADME; conditions: 177Lu complex, human serum, pH 7, 37° C.
# [5] = Stability and radioactivity level of 64Cu complexes in mice; format: in vivo; conditions: 64Cu complex
# [6] = EDTA challenge of 64Cu-radiolabeled pyridyl chelator; format: physicochemical; conditions: 37° C.; for Bound (%): Cu-64 complex, EDTA solution 100-fold molar excess
# Protocol: as §1
# [7] = In vitro serum stability of 90Y-radiolabeled bimodal chelator complexes; format: in vitro ADME; conditions: 90Y complex, human serum, pH 7, 37° C.
# Protocol: Human serum was purchased from Gemini Bioproducts (#100110). The radiolabeled complexes was prepared and directly used for serum stability studies without further purification. The stability of the pure radiolabeled complexes in human serum was evaluated at 37° C. for 2 weeks. The serum stability of the radiolabeled complexes was assessed by measuring the transfer of the radionuclide from each complex to serum proteins using ITLC (acetonitrile/water (3:2 v/v). A solution of the radiolabeled complex in serum (5-16 μL for ITLC) was withdrawn at the designated time point and evaluated by ITLC. At each of the time points, the percentage of ^90Y released from each of the radiolabeled complexes into serum was assessed by ITLC.
Compound,"Bound complex (%) ([1]; pH 5.5, ITLC, 0 h)","Bound complex (%) ([1]; pH 5.5, ITLC, 1 h)","Bound complex (%) ([1]; pH 5.5, ITLC, 4 h)","Bound complex (%) ([1]; pH 5.5, ITLC, 19 h)","Bound complex (%) ([1]; pH 5.5, ITLC, 24 h)","Bound complex (%) ([1]; pH 5.5, radio-HPLC, 25 h)","Bound complex (%) ([2]; pH 7, HPLC, 0 hour)","Bound complex (%) ([2]; pH 7, HPLC, 19 hour)","Bound complex (%) ([2]; pH 7, HPLC, 48 hour)","Bound complex (%) ([2]; pH 7, ITLC, 0 hour)","Bound complex (%) ([2]; pH 7, ITLC, 19 hour)","Bound complex (%) ([2]; pH 7, ITLC, 48 hour)",other results
"O=C(O)CN1CCN(CC(=O)O)CCN(CC(=O)CCc2ccc([N+](=O)[O-])cc2)CC1 [Chelator C, 2-[4-(carboxymethyl)-7-[4-(4-nitrophenyl)-2-oxobutyl]-1,4,7-triazonan-1-yl]acetic acid]",97.7 ± 0.2%,50.4 ± 0.4%,45.8 ± 1.5%,41.0 ± 0.4%,39.0 ± 0.2%,21.7 ± 1.3%,,,,,,,64Cu activity transchelated by EDTA ([1]; 1 h time point): 50%
"O=C(O)CN1CCN(CC(=O)O)CCN(CC(O)CCc2ccc([N+](=O)[O-])cc2)CC1 (centres unmarked) [Chelator D, 2-[4-(carboxymethyl)-7-[2-hydroxy-4-(4-nitrophenyl)butyl]-1,4,7-triazonan-1-yl]acetic acid]",99.5 ± 0.3%,86.8 ± 0.7%,79.1 ± 0.4%,59.3 ± 0.0%,55.0 ± 0.6%,41.0 ± 2.6%,,,,,,,
NCCCNC(=O)c1ccc(CN(CCN2CCN(CC(=O)O)CCN(CC(=O)O)CC2)CC(=O)O)nc1 [Chelator 10],,,,,,,(98.3 ± 2.0) %,(96.7 ± 0.0) %,(97.2 ± 0.21) %,99.9 ± 0.07%,99.8 ± 0.14%,99.9 ± 0.0%,"stability of 177Lu complex in EDTA solution [3]: remained stable in EDTA solution without releasing significant amount of the radioactivity; Bound (%) ([3]; pH 5.5, 0 hour): 99.8%; Bound (%) ([3]; pH 5.5, 1 hour): 95.7%; Bound (%) ([3]; pH 5.5, 6 hour): 94.9%; Bound (%) ([3]; pH 5.5, 24 hour): 94.6%"
"O=C(O)CN1CCN(CCCc2ccc([N+](=O)[O-])cc2)CCN(CC(=O)O)CC1 [Chelator B, 2-[4-(carboxymethyl)-7-[3-(4-nitrophenyl)propyl]-1,4,7-triazonan-1-yl]acetic acid]",99.9 ± 0.1%,90.4 ± 0.1%,69.2 ± 0.3%,22.9 ± 2.1%,19.4 ± 1.1%,11.9 ± 0.6%,,,,,,,64Cu activity dissociated from the complex / transferred to EDTA [1]: ~80%
"O=C(O)CN(CCN1CCN(CCN(CC(=O)O)CC(=O)O)CCN(CC(CCCc2ccc([N+](=O)[O-])cc2)N(CC(=O)O)CC(=O)O)CC1)CC(=O)O (centres unmarked) [Chelator 2, 2-{[2-(4-{2-[bis(carboxymethyl)amino]-5-(4-nitrophenyl)pentyl}-7-{2-[bis(carboxy-methyl)amino]ethyl}-1,4,7-triazonan-1-yl)ethyl](carboxymethyl)amino}acetic acid]",,,,,,,,,,,,,Bound radiolabeled complex (%) ([4]; 0 hour): 99.9 ± 0.0%
O=C(O)CN1CCN(CCN(CC(=O)O)Cc2ccccn2)CCN(CC(=O)O)CC1 [Chelator 4],,,,,,,(99.9 ± 0.0) %,(99.9 ± 0.07) %,(100.0 ± 0.0) %,99.9 ± 0.0%,100 ± 0.0%,100 ± 0.07%,"stability of 177Lu complex in EDTA solution [3]: remained stable in EDTA solution without releasing significant amount of the radioactivity; Bound (%) ([3]; pH 5.5, 0 hour): 99.8%; Bound (%) ([3]; pH 5.5, 1 hour): 99.5%; Bound (%) ([3]; pH 5.5, 6 hour): 99.2%; Bound (%) ([3]; pH 5.5, 24 hour): 98.3%"
"O=C(O)CN1CCN(CC(=O)O)CCN(C(CCc2ccc([N+](=O)[O-])cc2)C(=O)O)CC1 (centres unmarked) [Chelator A, 2-[4,7-bis(carboxymethyl)-1,4,7-triazonan-1-yl]-4-(4-nitrophenyl)butanoic acid, reference compound]",99.9 ± 0.1%,98.6 ± 0.6%,96.8 ± 0.0%,95.3 ± 0.5%,94.9 ± 0.0%,90.3 ± 0.3%,,,,,,,64Cu activity dissociated from the complex / transferred to EDTA [1]: ~5%; stability in mice and radioactivity level in blood and normal organs [5]: stable in mice and displayed low radioactivity level in the blood and the normal organs
"O=C(O)CN1CCN(CC(=O)O)CCN(Cc2cccs2)CC1 [Chelator F, 2-[4-(carboxymethyl)-7-(thiophen-2-ylmethyl)-1,4,7-triazonan-1-yl]acetic acid]",100 ± 0.1%,95.7 ± 0.5%,87.5 ± 0.4%,59.5 ± 0.6%,53.4 ± 1.7%,42.3 ± 0.3%,,,,,,,
NCCCNC(=O)c1ccc(CN2CCN(CC(=O)O)CCN(CC(=O)O)CC2)nc1 [Chelator 13],,,,,,,(100 ± 0.0) %,(100 ± 0.0) %,(100 ± 0.0) %,100.0 ± 0.07%,100.0 ± 0.0^ %,99.9 ± 0.07%,"Bound (%) ([6]; pH 5.5, 0 hour): 100 ± 0.07%; Bound (%) ([6]; pH 5.5, 1 hour): 99.9 ± 0.07%; Bound (%) ([6]; pH 5.5, 24 hour): 99.2 ± 0.42%; stability of 64Cu complex in EDTA challenge ([6]; EDTA 100-fold molar excess, 24 h): extremely stable in EDTA challenge"
O=C(O)CN1CCN(CCN(CC(=O)O)CC(=O)O)CCN(CC(CCCc2ccc([N+](=O)[O-])cc2)N(CC(=O)O)CC(=O)O)CC1 (centres unmarked) [Chelator 1],,,,,,,,,,,,,Bound radiolabeled complex (%) ([4]; 0 hour): 100 ± 0.07%; Bound radiolabeled complex (%) ([4]; 312 hour): 100 ± 0.00%; Bound radiolabeled complex (%) ([7]; 0 hour): 100 ± 0.00%; Bound radiolabeled complex (%) ([7]; 262 hour): 98.9 ± 1.34%; Bound radiolabeled complex (%) ([7]; 286 hour): 97.3 ± 2.92%; Bound radiolabeled complex (%) ([7]; 313 hour): 97.2 ± 2.46%; Bound radiolabeled complex (%) ([7]; 336 hour): 98.4 ± 0.67%
